What all share (format): cell-based
The test system of assay [1] is Plasmodium falciparum clone Thai WR75-TM9. Kind of assay: In vitro inhibition of [3H]hypoxanthine uptake, P. falciparum WR75-TM9. As to conditions: values without parentheses: blood serum (footnote: blood plasma) replacing Albumax; for IC50: Plasmodium falciparum. The procedure: (§1) The in vitro assays were conducted by using a modification of the semiautomated microdilution technique of Desjardins et al.^11 and Chulay et al.^12 Two strains of Plasmodium falciparum clones, from CDC Indochina III (W-2), CDC Sierra Leone I (D-6). […] They were derived by direct visualization and micromanipulation from patient isolates.^13 Test compounds were initially dissolved in DMSO and diluted 400-fold in RPMI 1640 culture medium supplemented with 25 mM Hepes, 32 mM HaHCO3, and 10% Albumax I® (GIBCO BRL, Grand Island, N.Y.). These solutions were subsequently serially diluted 2-fold with a Biomek 1000® (Beckman, Fullerton, Calif.) over 11 different concentrations. The parasites were exposed to serial dilutions of each compound for 48 h and incubated at 37° C. with 5% O2, 5% CO2, and 90% N2 prior to the addition of [^3H]hypoxanthine. After a further incubation of 18 h, parasite DNA was harvested from each microtiter well using Packard Filtermate 196 Harvester® (Meriden, Conn.) onto glass filters. Uptake of [^3H]hypoxanthine was measured with a Packard Topcount scintillation counter. […] This procedure was repeated with the test compounds initially dissolved in DMSO and diluted 400-fold in RPMI 1640 culture medium supplemented with 25 mM Hepes, 32 mM HaHCO3, and with blood serum replacing the 10% Albumax I® (see Table 1, figures without parentheses). The values without parentheses indicate culture in blood serum which more closely resemble conditions in a living animal.
(§2) Four strains of Plasmodium falciparum clones, from CDC Indochina III (W-2), CDC Sierra Leone I (D-6), Thai WR75-TM9, and Thai TM90C2B were utilized in susceptibility testing and the IC50 results appear in Table 1.

Assay [2] concerns Plasmodium falciparum clone CDC Sierra Leone I (D-6). Kind of assay: In vitro inhibition of [3H]hypoxanthine uptake, P. falciparum D-6 clone. As to conditions: for IC50: Plasmodium falciparum, read-out: IC50 (D-6). The procedure:
(§3) The in vitro assays were conducted by using a modification of the semiautomated microdilution technique of Desjardins et al.^11 and Chulay et al.^12 Two strains of Plasmodium falciparum clones, from CDC Indochina III (W-2), CDC Sierra Leone I (D-6). […] These solutions were subsequently serially diluted 2-fold with a Biomek 1000® (Beckman, Fullerton, Calif.) over 11 different concentrations. The parasites were exposed to serial dilutions of each compound for 48 h and incubated at 37° C. with 5% O2, 5% CO2, and 90% N2 prior to the addition of [^3H]hypoxanthine. […] Uptake of [^3H]hypoxanthine was measured with a Packard Topcount scintillation counter. […] The values without parentheses indicate culture in blood serum which more closely resemble conditions in a living animal.
(§4) The numbers associated with both W2 and D6 refer to IC50 values and the units are ng/ml.

For assay [3], the system named is Plasmodium falciparum clone Thai TM90C2B. Briefly: In vitro inhibition of [3H]hypoxanthine uptake, P. falciparum TM90C2B. As to conditions: Plasmodium falciparum, TM90C2B, values without parentheses: blood serum (footnote: blood plasma) replacing Albumax. The procedure: as §1, §2
In assay [4] the test system is Plasmodium falciparum clone CDC Indochina III (W-2). Kind of assay: In vitro inhibition of [3H]hypoxanthine uptake, P. falciparum W-2 clone. As to conditions: for IC50: Plasmodium falciparum, read-out: IC50 (W-2). The procedure:
as §3, §4

A further assay concerns Plasmodium falciparum. Kind of assay: In vitro antimalarial activity against Plasmodium falciparum (strain not given). The following applies: judged from the IC50 values of Table 1. As to the method: as §1, §2
The mark [5] stands for this setting: values in parentheses: culture medium with 10% Albumax I.
[6] abbreviates: values without parentheses: blood serum (footnote: blood plasma) replacing Albumax.

In brackets after ≈: the same amount, converted by molar mass. Read-outs that look alike come from different tables or passages of the source.

`CN1CCN(c2ccc3c(=O)n4c(nc3c2)C(=O)c2cc(Cl)ccc2-4)CC1` [Example 58]: the IC50 in assay [1] is 17.3 ng/mL (≈ 0.0454 µM); in assay [2] (setting [5]), 4.52 ng/mL (≈ 0.0119 µM); in assay [3], 8.1 ng/mL (≈ 0.0213 µM); in assay [4] (setting [5]) it was 2.73 ng/mL (≈ 0.00717 µM).

For `O=C1c2cc(Br)ccc2-n2c1nc1cnccc1c2=O` [Example 59], the IC50 in assay [2] (setting [5]) turned out to be 4.37 ng/mL (≈ 0.0133 µM); in assay [2] (setting [6]) it was 37.9 ng/mL (≈ 0.115 µM); in assay [3] it was 24 ng/mL (≈ 0.0732 µM); in assay [4] (setting [5]) it was 2.47 ng/mL (≈ 0.00753 µM); in assay [4] (setting [6]), 17.7 ng/mL (≈ 0.054 µM).

As to `O=C1c2cc(OC(F)(F)F)ccc2-n2c1nc1ccncc1c2=O` [Example 63], the IC50 in assay [1] amounted to 1.97 ng/mL (≈ 0.0059 µM); in assay [2] (setting [5]), 3.16 ng/mL (≈ 0.00948 µM); in assay [2] (setting [6]), 0.946 ng/mL (≈ 0.00284 µM); in assay [3], 1.16 ng/mL (≈ 0.00349 µM); in assay [4] (setting [5]) it was 1.5 ng/mL (≈ 0.0045 µM); in assay [4] (setting [6]), 1.23 ng/mL (≈ 0.00369 µM). The “effectiveness in treating/reducing malaria parasites as shown in Table 1” value with Plasmodium falciparum is “most effective”.

With `CN(CCO)c1ccc2c(=O)n3c(nc2c1)C(=O)c1cc(F)ccc1-3` [Example 68], the IC50 turned out to be 5.47 ng/mL (≈ 0.0161 µM) in assay [1], 7.86 ng/mL (≈ 0.0232 µM) in assay [2] (setting [5]), 3.73 ng/mL (≈ 0.011 µM) in assay [3] and 3.86 ng/mL (≈ 0.0114 µM) in assay [4] (setting [5]).

Regarding `COC(OC)c1ccc2c(c1)C(=O)c1nc3ccncc3c(=O)n1-2` [Example 70], the IC50 is 24.4 ng/mL (≈ 0.0754 µM) in assay [1]; 13.2 ng/mL (≈ 0.0409 µM) in assay [2] (setting [5]); 11 ng/mL (≈ 0.034 µM) in assay [3]; 8.69 ng/mL (≈ 0.0269 µM) in assay [4] (setting [5]); 6.1 ng/mL (≈ 0.0189 µM) in assay [4] (setting [6]).

Turning to `COC(c1ccc2c(c1)C(=O)c1nc3ccncc3c(=O)n1-2)C(C)C` (stereo not drawn) [Example 73], the IC50 in assay [1] stood at 10.5 ng/mL (≈ 0.0313 µM); in assay [2] (setting [5]), 5.4 ng/mL (≈ 0.0161 µM); in assay [2] (setting [6]), 4.89 ng/mL (≈ 0.0146 µM); in assay [3], 4.46 ng/mL (≈ 0.0133 µM); in assay [4] (setting [5]), 3.75 ng/mL (≈ 0.0112 µM); in assay [4] (setting [6]) it was 2.85 ng/mL (≈ 0.00851 µM).

In the case of `O=C1c2cc(C3CCCCC3)ccc2-n2c1nc1ccncc1c2=O` [Example 74], the IC50 in assay [1] worked out at 127 ng/mL (≈ 0.384 µM); in assay [2] (setting [5]) it was 2.19 ng/mL (≈ 0.00661 µM); in assay [2] (setting [6]), 79.6 ng/mL (≈ 0.24 µM); in assay [3] it was 42.5 ng/mL (≈ 0.128 µM); in assay [4] (setting [5]) it was 3.52 ng/mL (≈ 0.0106 µM); in assay [4] (setting [6]) it was 59.8 ng/mL (≈ 0.181 µM).

Take `O=C1c2cc(OC(F)(F)F)ccc2-n2c1nc1cc(F)ccc1c2=O` [Example 78]: the half-inhibitory concentration (IC50) in assay [1] was found to be 3.3 ng/mL (≈ 0.00941 µM); in assay [2] (setting [5]) it was 0.93 ng/mL (≈ 0.00266 µM); in assay [2] (setting [6]), 1.97 ng/mL (≈ 0.00561 µM); in assay [3], 1.76 ng/mL (≈ 0.00504 µM); in assay [4] (setting [5]), 0.86 ng/mL (≈ 0.00246 µM); in assay [4] (setting [6]) it was 0.935 ng/mL (≈ 0.00267 µM). The “effectiveness in treating/reducing malaria parasites as shown in Table 1” value with Plasmodium falciparum is “most effective”.

Turning to `CCc1ccc2c(c1)C(=O)c1nc3ccncc3c(=O)n1-2` [Example 83], the IC50 turned out to be 25.7 ng/mL (≈ 0.0927 µM) in assay [1]; 3.11 ng/mL (≈ 0.0112 µM) in assay [2] (setting [5]); 15.1 ng/mL (≈ 0.0546 µM) in assay [2] (setting [6]); 12.9 ng/mL (≈ 0.0464 µM) in assay [3]; 1.8 ng/mL (≈ 0.00649 µM) in assay [4] (setting [5]); 7.19 ng/mL (≈ 0.0259 µM) in assay [4] (setting [6]).

Turning to `O=C1c2cc(Cl)ccc2-n2c1nc1cc(SCCO)ccc1c2=O` [Example 86], the IC50 was determined as 3.6 ng/mL (≈ 0.01 µM) in assay [2] (setting [5]); 3.63 ng/mL (≈ 0.0101 µM) in assay [2] (setting [6]); 2.08 ng/mL (≈ 0.00579 µM) in assay [3]; 2.3 ng/mL (≈ 0.00641 µM) in assay [4] (setting [5]); 1.91 ng/mL (≈ 0.00532 µM) in assay [4] (setting [6]).

With `O=C1c2cc(OC(F)(F)F)ccc2-n2c1nc1cc(SCCO)ccc1c2=O` [Example 87], the IC50 in assay [1] was 4.44 ng/mL (≈ 0.0109 µM); in assay [2] (setting [5]) it was 4.92 ng/mL (≈ 0.012 µM); in assay [3], 0.696 ng/mL (≈ 0.0017 µM); in assay [4] (setting [5]) it was 3.51 ng/mL (≈ 0.0086 µM).

With `C=CCO/N=C/c1ccc2c(c1)C(=O)c1nc3ccncc3c(=O)n1-2` [Example 90], the IC50 in assay [1] came to 30 ng/mL (≈ 0.0904 µM); in assay [2] (setting [5]), 7.59 ng/mL (≈ 0.0228 µM); in assay [2] (setting [6]), 16.3 ng/mL (≈ 0.0491 µM); in assay [3] it was 6.14 ng/mL (≈ 0.0185 µM); in assay [4] (setting [5]) it was 3.93 ng/mL (≈ 0.0118 µM); in assay [4] (setting [6]), 15.6 ng/mL (≈ 0.0469 µM).

`O=C1c2cc(F)ccc2-n2c1nc1ccccc1c2=O` [Example 91]: the “IC50 (WR75-TM9)” value in assay [1] was 9.941 ng/mL (≈ 0.0373 µM). The IC50 in assay [2] (setting [5]) is 0.24 ng/mL (≈ 0.000901 µM); in assay [2] (setting [6]), 9.06 ng/mL (≈ 0.034 µM); in assay [4] (setting [5]), 1.8 ng/mL (≈ 0.00676 µM); in assay [4] (setting [6]) it was 5.52 ng/mL (≈ 0.0207 µM). The “IC50 (D-6)” value in assay [2] (setting [6]) is recorded as 10.137 ng/mL (≈ 0.0381 µM). In addition, in assay [4] (setting [6]), the “IC50 (W-2)” value is given as 4.977 ng/mL (≈ 0.0187 µM).

The values above are taken from US8012987B2, “Indolo[2,1-b] quinazole-6,12-dione antimalarial compounds and methods of treating malaria therewith” (The United States of America as represented by the …, priority 1998, dated 2011).
